Experimental data: US20240358692A1, “TREATMENT OF SCLERODERMA” (Aisa Pharma, Inc., priority 2023, published 2024)

Tested on: participants with SSc-RP
Assay: SHAQ - Visual Analog Scale - Finger Ulcers
Assay type: in vivo, human
Conditions: for % improvement in VAS Digital Ulcers: SHAQ, mITT Part A
Description: The standard, validated, patient reported outcome measures tool for SSc patients, the Scleroderma Health Assessment Questionnaire (SHAQ), will be used to assess the participant qualify of life. Details are attached in the Appendix. The participant quality of life will be scored, and a disability index calculated for each questionnaire completed by the patient at Screening and each in-clinic visit. The absolute change in participant quality of life from baseline to the end of each dosing period will be calculated similar to frequency data as before.
The standard, validated, patient reported outcome measures tool for SSc patients, the SHAQ, was collected at the time points specified in the study schedules (FIG. 2 and FIGS. 4A and 4B) to assess the participant's quality of life. The SHAQ included a Raynaud's VAS that will also be reported separately.

[1] = Any Cilnidipine (N = 17), Day 12, PP Population, Part A
[2] = Cilnidipine 10 mg (N = 4), Day 12, PP Population, Part A
[3] = Cilnidipine 20 mg (N = 4), Day 12, PP Population, Part A
[4] = Pooled Cilnidipine 10 mg and Cilnidipine 10 mg + Tadalafil 5 mg, PP, Part A
[5] = Pooled Cilnidipine 20 mg and Cilnidipine 20 mg + Tadalafil 5 mg, PP, Part A
[6] = Pooled Cilnidipine (N = 8), Day 12, PP Population, Part A
[7] = cilnidipine 10 mg (combination: + tadalafil 5 mg)
[8] = cilnidipine 20 mg (combination: + tadalafil 5 mg)
[9] = Tadalafil 5 mg (N = 5), Day 12, PP Population, Part A

COCCOC(=O)C1=C(C)NC(C)=C(C(=O)OC/C=C/c2ccccc2)C1c1cccc([N+](=O)[O-])c1 (centres unmarked) [Cilnidipine]
SHAQ Visual Analogue Scale - Finger Ulcers, Change from Baseline, Mean (SD) [1]: −0.540 (1.0568) | SHAQ Visual Analogue Scale - Finger Ulcers, Change from Baseline, Median [1]: −0.100 | SHAQ Visual Analogue Scale - Finger Ulcers, In-Clinic Visit (Day 12), Mean (SD) [1]: 0.731 (1.4351) | SHAQ Visual Analogue Scale - Finger Ulcers, In-Clinic Visit (Day 12), Median [1]: 0.000 | SHAQ Visual Analogue Scale - Finger Ulcers, Percent Change from Baseline, Mean (SD) [1]: −33.91 (69.617) % | SHAQ Visual Analogue Scale - Finger Ulcers, Percent Change from Baseline, Median [1]: −36.11% | SHAQ Visual Analogue Scale - Finger Ulcers, Change from Baseline, Median [2]: −0.350 | SHAQ Visual Analogue Scale - Finger Ulcers, In-Clinic Visit (Day 12), Median [2]: 0.000 | SHAQ Visual Analogue Scale - Finger Ulcers, In-Clinic Visit (Day 12), Median (Cilnidipine 10 mg, Day 12, PP Population Part A, sensitivity analysis): 0.000 | SHAQ Visual Analogue Scale - Finger Ulcers, Change from Baseline, Median [3]: 0.000 | SHAQ Visual Analogue Scale - Finger Ulcers, In-Clinic Visit (Day 12), Median [3]: 0.350 | % improvement in VAS Digital Ulcers (Cilnidipine 20 mg (n = 3)): 35% | SHAQ Burden of Finger Ulcers, mean % change (Cilnidipine 20 mg (n = 3), minus = improvement, Table A*): −17% | SHAQ Visual Analogue Scale - Finger Ulcers, In-Clinic Visit (Day 12), Mean (Pooled Cilnidipine 10 mg and Cilnidipine 10 mg + Tadalafil 5 mg (N = 9), Modified ITT Population - Part A): 0.389 | SHAQ VAS Finger Ulcers, Change from Baseline, Max [4]: 0.00 | SHAQ VAS Finger Ulcers, Change from Baseline, Min [4]: −1.00, | SHAQ VAS Finger Ulcers, Change from Baseline, Q1 [4]: −0.500, | SHAQ VAS Finger Ulcers, Change from Baseline, Q3 [4]: 0.000 | SHAQ VAS Finger Ulcers, Day 12, Max [4]: 1.50 | SHAQ VAS Finger Ulcers, Day 12, Min [4]: 0.00, | SHAQ VAS Finger Ulcers, Day 12, Q1 [4]: 0.000, | SHAQ VAS Finger Ulcers, Day 12, Q3 [4]: 0.700 | SHAQ VAS Finger Ulcers, Percent Change from Baseline, Max [4]: 0.0 | SHAQ VAS Finger Ulcers, Percent Change from Baseline, Min [4]: −100.0, | SHAQ VAS Finger Ulcers, Percent Change from Baseline, Q1 [4]: −100.00, | SHAQ VAS Finger Ulcers, Percent Change from Baseline, Q3 [4]: −12.50 | SHAQ VAS Finger Ulcers, Change from Baseline, Max [5]: 0.40 | SHAQ VAS Finger Ulcers, Change from Baseline, Min [5]: −3.20, | SHAQ VAS Finger Ulcers, Change from Baseline, Q1 [5]: −2.800, | SHAQ VAS Finger Ulcers, Change from Baseline, Q3 [5]: 0.000 | SHAQ VAS Finger Ulcers, Day 12, Max [5]: 5.60 | SHAQ VAS Finger Ulcers, Day 12, Median [5]: 0.000 | SHAQ VAS Finger Ulcers, Day 12, Min [5]: 0.00, | SHAQ VAS Finger Ulcers, Day 12, Q1 [5]: 0.000, | SHAQ VAS Finger Ulcers, Day 12, Q3 [5]: 1.900 | SHAQ VAS Finger Ulcers, Percent Change from Baseline, Max [5]: 133.3 | SHAQ VAS Finger Ulcers, Percent Change from Baseline, Min [5]: −100.0, | SHAQ VAS Finger Ulcers, Percent Change from Baseline, Q1 [5]: −81.37, | SHAQ VAS Finger Ulcers, Percent Change from Baseline, Q3 [5]: 50.00 | SHAQ Visual Analogue Scale - Finger Ulcers, Change from Baseline, Mean (SD) [6]: −0.643 (1.2246) | SHAQ Visual Analogue Scale - Finger Ulcers, Change from Baseline, Median [6]: 0.000 | SHAQ Visual Analogue Scale - Finger Ulcers, In-Clinic Visit (Day 12), Mean (SD) [6]: 0.463 (0.7170) | SHAQ Visual Analogue Scale - Finger Ulcers, In-Clinic Visit (Day 12), Median [6]: 0.000 | SHAQ Visual Analogue Scale - Finger Ulcers, Percent Change from Baseline, Mean (SD) [6]: −17.08 (103.378) % | SHAQ Visual Analogue Scale - Finger Ulcers, Percent Change from Baseline, Median [6]: −50.82% | % improvement in VAS Digital Ulcers (Pooled Cilnidipine (n = 7)): 19% | SHAQ VAS Finger Ulcers, Change from Baseline, Max (Pooled Cilnidipine, PP, Part A): 0.40 | SHAQ VAS Finger Ulcers, Change from Baseline, Min (Pooled Cilnidipine, PP, Part A): −3.20, | SHAQ VAS Finger Ulcers, Change from Baseline, Q1 (Pooled Cilnidipine, PP, Part A): −1.000, | SHAQ VAS Finger Ulcers, Change from Baseline, Q3 (Pooled Cilnidipine, PP, Part A): 0.000 | SHAQ VAS Finger Ulcers, Day 12, Max (Pooled Cilnidipine, PP, Part A): 1.90 | SHAQ VAS Finger Ulcers, Day 12, Min (Pooled Cilnidipine, PP, Part A): 0.00, | SHAQ VAS Finger Ulcers, Day 12, Q1 (Pooled Cilnidipine, PP, Part A): 0.000, | SHAQ VAS Finger Ulcers, Day 12, Q3 (Pooled Cilnidipine, PP, Part A): 0.900 | SHAQ VAS Finger Ulcers, Percent Change from Baseline, Max (Pooled Cilnidipine, PP, Part A): 133.3 | SHAQ VAS Finger Ulcers, Percent Change from Baseline, Min (Pooled Cilnidipine, PP, Part A): −100.0, | SHAQ VAS Finger Ulcers, Percent Change from Baseline, Q1 (Pooled Cilnidipine, PP, Part A): −81.37, | SHAQ VAS Finger Ulcers, Percent Change from Baseline, Q3 (Pooled Cilnidipine, PP, Part A): 47.22 | VAS Finger Ulcers Change from Baseline Max [7]: 0.00 | VAS Finger Ulcers Change from Baseline Median [7]: −0.350 | VAS Finger Ulcers Change from Baseline Min [7]: −1.00 | VAS Finger Ulcers Change from Baseline Q1 [7]: −0.850 | VAS Finger Ulcers Change from Baseline Q3 [7]: 0.000 | VAS Finger Ulcers Day 12 Max [7]: 1.10 | VAS Finger Ulcers Day 12 Median [7]: 0.000 | VAS Finger Ulcers Day 12 Min [7]: 0.00 | VAS Finger Ulcers Day 12 Q1 [7]: 0.000 | VAS Finger Ulcers Day 12 Q3 [7]: 0.550 | VAS Finger Ulcers Percent Change from Baseline Mean [7]: −69.44% | VAS Finger Ulcers Percent Change from Baseline Median [7]: −69.44% | VAS Finger Ulcers Percent Change from Baseline Min [7]: −100.0% | VAS Finger Ulcers Percent Change from Baseline Q1 [7]: −100.00% | VAS Finger Ulcers Change from Baseline Max [8]: 0.40 | VAS Finger Ulcers Change from Baseline Mean [8]: −0.933 | VAS Finger Ulcers Change from Baseline Median [8]: 0.000 | VAS Finger Ulcers Change from Baseline Min [8]: −3.20 | VAS Finger Ulcers Change from Baseline Q1 [8]: −3.200 | VAS Finger Ulcers Change from Baseline Q3 [8]: 0.400 | VAS Finger Ulcers Day 12 Max [8]: 1.90 | VAS Finger Ulcers Day 12 Median [8]: 0.700 | VAS Finger Ulcers Day 12 Min [8]: 0.00 | VAS Finger Ulcers Day 12 Q1 [8]: 0.000 | VAS Finger Ulcers Day 12 Q3 [8]: 1.900 | VAS Finger Ulcers Percent Change from Baseline Max [8]: 133.3% | VAS Finger Ulcers Percent Change from Baseline Mean [8]: 35.29% | VAS Finger Ulcers Percent Change from Baseline Median [8]: 35.29% | VAS Finger Ulcers Percent Change from Baseline Min [8]: −62.7% | VAS Finger Ulcers Percent Change from Baseline Q1 [8]: −62.75% | VAS Finger Ulcers Percent Change from Baseline Q3 [8]: 133.33%

CN1CC(=O)N2[C@H](c3ccc4c(c3)OCO4)c3[nH]c4ccccc4c3C[C@@H]2C1=O [Tadalafil]
SHAQ Visual Analogue Scale - Finger Ulcers, Change from Baseline, Mean [9]: 0.250 | SHAQ Visual Analogue Scale - Finger Ulcers, Change from Baseline, Median [9]: 0.000 | SHAQ Visual Analogue Scale - Finger Ulcers, Percent Change from Baseline, Mean [9]: 6.10% | SHAQ Visual Analogue Scale - Finger Ulcers, Percent Change from Baseline, Median [9]: 6.10% | VAS Finger Ulcers Change from Baseline Max (tadalafil 5 mg): 1.00 | VAS Finger Ulcers Change from Baseline Mean (tadalafil 5 mg): 0.250 | VAS Finger Ulcers Change from Baseline Median (tadalafil 5 mg): 0.000 | VAS Finger Ulcers Change from Baseline Min (tadalafil 5 mg): 0.00 | VAS Finger Ulcers Change from Baseline Q1 (tadalafil 5 mg): 0.000 | VAS Finger Ulcers Change from Baseline Q3 (tadalafil 5 mg): 0.500 | VAS Finger Ulcers Day 12 Max (tadalafil 5 mg): 9.20 | VAS Finger Ulcers Day 12 Median (tadalafil 5 mg): 0.050 | VAS Finger Ulcers Day 12 Min (tadalafil 5 mg): 0.00 | VAS Finger Ulcers Day 12 Q1 (tadalafil 5 mg): 0.000 | VAS Finger Ulcers Day 12 Q3 (tadalafil 5 mg): 4.650 | VAS Finger Ulcers Percent Change from Baseline Max (tadalafil 5 mg): 12.2% | VAS Finger Ulcers Percent Change from Baseline Mean (tadalafil 5 mg): 6.10% | VAS Finger Ulcers Percent Change from Baseline Median (tadalafil 5 mg): 6.10% | VAS Finger Ulcers Percent Change from Baseline Min (tadalafil 5 mg): 0.0% | VAS Finger Ulcers Percent Change from Baseline Q1 (tadalafil 5 mg): 0.00% | VAS Finger Ulcers Percent Change from Baseline Q3 (tadalafil 5 mg): 12.20%
